From paper PMC9501810, “Bitter Peptides YFYPEL, [sequence], and [sequence], Released during Gastric Digestion of Casein, Stimulate Mechanisms of Gastric Acid Secretion via Bitter Taste Receptors TAS2R16 and TAS2R38” (Journal of Agricultural and Food Chemistry, 2022)
Where “and” joins values, the source holds several entries; their conditions need not be identical. Equal values may be shown once.

Experiments:
pepsin = experiment: In vitro gastric digestion of casein with targeted UHPLC-MS/MS-MRM quantitation of peptides; type: in vitro ADME, porcine; settings: 37 °C, n = 4; for degradation of the peptide during further in vitro gastric digestion: up to 6 h
Procedure: The in vitro digestion was based on the Nature protocol established by Brodkorb et al.([30]) For this, simulated salivary fluid (SSF, containing 15.1 mM KCl, 3.7 mM KH2PO4, 13.6 mM NaHCO3, 0.15 mM MgCl2(H2O)6, 0.06 mM (NH4)2CO3, 1.1 mM HCl, and 1.5 mM CaCl2(H2O)2) and simulated gastric fluid (SGF, containing 6.9 mM KCl, 0.9 mM KH2PO4, 25.0 mM NaHCO3, 47.2 mM NaCl, 0.12 mM MgCl2(H2O)6, 0.5 mM (NH4)2CO3, 15.6 mM HCl, and 0.15 mM CaCl2(H2O)2) were prepared. A total amount of 100 mg casein was suspended in 3 mL of SSF and incubated for 5 min at 37 °C in the tube rotator. After taking a sample (500 μL, t = 0 h), 2 mL of SGF was added and the pH was adjusted to 3 with 100 μL of HCl (1 M). After addition of 125 μL of pepsin solution (80,000 U/mL in 10 mM HCl), 275 μL of H2O was added to fill up to 5 mL. This was followed by further incubation at 37 °C in a tube rotator for 6 h. 500 μL of samples was taken at 0.25, 0.5, 0.75, 1, 2, 3, 4, 5, and 6 h, respectively. The samples were frozen in liquid nitrogen and stored at −80 °C until further analysis. For MS experiments, all samples were diluted 1:1 with 10% MeCN.
All targeted proteomics LC–MS/MS measurements were performed using a Sciex ExionLC AC (Sciex, Darmstadt, Germany) coupled to a 6500+ QTrap LC–MS/MS system (Sciex, Darmstadt, Germany) operating in the positive electrospray ionization mode. Data acquisition and instrumentation control were performed with AnalystTF software (v 1.7.1; Sciex, Darmstadt, Germany). Separation was performed using a 100 × 2.1 mm, 1.7 μm, Kinetex C18 column (Phenomenex, Aschaffenburg, Germany) with a guard column of the same type with 0.1% aqueous formic acid and acetonitrile containing 0.1% formic acid at a flow rate of 0.25 mL/min. The gradient was based on the following scheme: 0 min, 15% B; 7 min, 40% B; 7.5 min, 98% B; 10.5 min, 98% B; 10.8 min, 15% B; and 15 min, 15% B. The column oven temperature was set at 40 °C, and the injection volume was 1 μL per sample. For MS/MS measurements, the same parameters were used for all samples (ion spray voltage […], source temperature 450 °C, nebulizing gas 60 psi, and heating gas 30 psi). Nitrogen was set to 35 psi and served as a curtain gas to effectively dissolve the ions. To optimize the parameters DP, CE, and collision cell exit potential for each peptide and transition (Supporting Information Table-SI 2), standard solutions of the five synthesized peptides were injected directly into the MS ion source. Ionization parameters were optimized in positive ESI mode using AnalystTF software (v 1.7.1; Sciex, Darmstadt, Germany). For the preparation of the calibration curves, five peptides were dissolved individually in D2O (600 μL) and the concentration of the stock solutions was determined by qNMR.[35] For each peptide, seven calibration solutions (0.5, 1, 5, 10, 50, 100, and 200 μM) were diluted in 5% MeCN from these stock solutions. The data were analyzed using MultiQuant software (v 3.0.3; Sciex, Darmstadt, Germany).

TAS2R16 = experiment: RT-qPCR gene expression of TAS2R16 in HGT-1 cells; type: cell-based, human; settings: VAPFPEVF 17.5 µM, YFYPEL 0.03 µM, YQEPVLGPVRGPFPIIV 0.4 µM, normalized to PPIA and GAPDH and untreated cells, mean, n = 3–5
Procedure: For mRNA expression analysis, 800,000 cells were seeded in a T25 cell culture flask (25 cm^2) 1 day before the experiment. After incubation with 17.5 μM […], 0.03 μM YFYPEL, or 0.4 μM […] for 15, 30, 60, and 120 min, RNA was isolated using the peqGOLD RNA Kit (VWR Peqlab, USA) following the manufacturer’s protocol. Determination of RNA concentration (A260/A280 between 2.03 and 2.09) was performed on a NanoDrop One^c (Thermo Fisher Scientific Inc., USA). RNA integrity number (RIN 9.9–10.0, version 2.6, assay class Eukaryote Total RNA Nano) was analyzed using a 2100 Bioanalyzer (Agilent Technologies, USA). Removal of gDNA and synthesis of cDNA were performed using the iScript gDNA Clear cDNA Synthesis Kit (BioRad, Feldkirchen, Germany) following the manufacturer’s protocol. Real-time-qPCR (RT-qPCR) was performed with 50 ng cDNA amplified with SsoAdvanced Universal SYBR Green Supermix (Bio-Rad Laboratories, Inc., USA). The sequences of the forward and reverse primers of the 25 TAS2Rs were taken from Liszt et al.([13]) (Supporting Information Table-SI 3). Verified primers for the TAS1Rs (TAS1R1: qHsaCID0013443; TAS1R2: qHsaCID0016106; TAS1R3: qHsaCED0002321) and for MAPK1 (qHsaCEP0050000) were obtained from Bio-Rad Laboratories. PPIA[37] and GAPDH[38] were used as reference genes. The effects of the peptides on gene expression were analyzed in comparison to untreated control cells. […]

MUC5AC = settings: human intestinal cells; cited from earlier work
From the text: (§1) In addition, transport through Caco-2 cell monolayers was ...

[1] = test system: angiotensin-converting-enzyme; set-up: method as in PMID 8201050; settings: cited from earlier work
From the text: as §1

[2] = set-up: method as in PMID 1427989; settings: cited from earlier work
From the text: as §1

Caco-2 cell monolayers = settings: cited from earlier work
From the text: as §1

[3] = cited from earlier work
From the text: as §1

Substance	degradation of the peptide during further in vitro gastric digestion (pepsin; SGF pH 3 with pepsin)	change in gene expression of TAS2R16 (TAS2R16; incubation 15 min) [fold change]	change in gene expression of TAS2R16 (TAS2R16; incubation 30 min)	change in gene expression of TAS2R16 (TAS2R16; incubation 60 min) [fold change]	change in gene expression of TAS2R16 (TAS2R16; incubation 120 min) [fold change]	effect on expression of MUC5AC (MUC5AC)	final concentration after 6 h of in vitro digestion (pepsin; 100 mg casein, SGF pH 3 with pepsin, 6 h, mean) [µM]	highest concentration released during in vitro digestion (pepsin; 100 mg casein, SSF then SGF pH 3 with pepsin, 0–6 h, mean)	angiotensin-converting-enzyme inhibitory activity [1]	immunomodulatory ability [2]	transport through Caco-2 cell monolayers (Caco-2 cell monolayers)	antimicrobial ability [3]
VAPFPEVF [bitter casein peptide αS1-CN25–32]	no noticeable degradation	1.50	3.70 fold change and 3.70 ± 0.97 fold change	1.65	2.88	–	–	–	–	–	–	–
YFYPEL [bitter casein peptide αS1-CN144–149]	no noticeable degradation	2.58	3.19 fold change and 3.19 ± 0.50 fold change	2.44	2.51	increase the expression of MUC5AC	–	–	–	–	–	–
YQEPVLGPVRGPFPIIV [bitter casein peptide βA1/A2-CN193–209]	continuous cleavage over the 6 h	2.61	3.46 fold change and 3.46 ± 0.58 fold change	2.50	3.00	–	22.5	up to 300.8 μM	angiotensin-converting-enzyme inhibitory activity	immunomodulatory abilities	transport through Caco-2 cell monolayers was observed	antimicrobial
